One may read the Ki as a measure of affinity in units of concentration, obtained from inhibition or displacement.

19 compounds from ChEMBL document CHEMBL3399945, “A class of sulfonamide carbonic anhydrase inhibitors with neuropathic pain modulating effects” (Bioorg Med Chem, 2015) can be followed below.

The target of one experiment is Carbonic anhydrase 1 (Homo sapiens, UniProt P00915). Kind of experiment: Inhibition of human recombinant CA-1 after 15 mins by stopped-flow CO2 hydrase assay.
Another experiment concerns the target Carbonic anhydrase 2 (Homo sapiens, UniProt P00918). Kind of experiment: Inhibition of human recombinant CA-2 after 15 mins by stopped-flow CO2 hydrase assay.
For a further experiment, the target named is Carbonic anhydrase 7 (Homo sapiens, UniProt P43166). Kind of experiment: Inhibition of human recombinant CA-7 after 15 mins by stopped-flow CO2 hydrase assay.
Chain of Carbonic anhydrase 7 (P43166 whole entry): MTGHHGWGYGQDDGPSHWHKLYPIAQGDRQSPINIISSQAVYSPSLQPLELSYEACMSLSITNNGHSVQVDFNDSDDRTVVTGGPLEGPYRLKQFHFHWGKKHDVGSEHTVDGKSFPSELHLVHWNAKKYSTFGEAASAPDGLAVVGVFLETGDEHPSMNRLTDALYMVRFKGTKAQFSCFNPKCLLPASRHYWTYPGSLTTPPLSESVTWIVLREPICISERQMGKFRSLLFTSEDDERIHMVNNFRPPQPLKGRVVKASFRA
A further experiment deals with Carbonic anhydrase 9 (Homo sapiens, UniProt Q16790).
For the next experiment, the target named is Carbonic anhydrase 12 (Homo sapiens, UniProt O43570).
Chain of Carbonic anhydrase 12 (O43570 whole entry): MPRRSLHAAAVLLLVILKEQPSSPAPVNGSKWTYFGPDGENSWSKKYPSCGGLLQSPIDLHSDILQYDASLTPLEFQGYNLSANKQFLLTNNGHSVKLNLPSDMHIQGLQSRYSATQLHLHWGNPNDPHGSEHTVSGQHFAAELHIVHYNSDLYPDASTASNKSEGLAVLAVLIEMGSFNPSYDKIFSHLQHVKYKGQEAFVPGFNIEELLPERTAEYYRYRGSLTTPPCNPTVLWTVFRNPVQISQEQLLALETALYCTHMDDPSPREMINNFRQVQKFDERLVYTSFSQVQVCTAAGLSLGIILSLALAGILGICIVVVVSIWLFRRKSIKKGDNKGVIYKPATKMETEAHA
In experiment [1] the test system is Mus musculus. As to the kind of experiment: Inhibition of oxaliplatin-induced neuropathic pain in po dosed CD-1 mouse model assessed as latency to pain-related behavior after 15 to 45 mins by cold plate test. The format is functional.
Experiment [2] deals with Mus musculus. Kind of experiment: Inhibition of oxaliplatin-induced neuropathic pain in po dosed CD-1 mouse model assessed as latency to pain-related behavior after 15 to 45 mins by cold plate test relative to acetazolamide. The format is functional.

Chain of Carbonic anhydrase 1 (P00915 whole entry): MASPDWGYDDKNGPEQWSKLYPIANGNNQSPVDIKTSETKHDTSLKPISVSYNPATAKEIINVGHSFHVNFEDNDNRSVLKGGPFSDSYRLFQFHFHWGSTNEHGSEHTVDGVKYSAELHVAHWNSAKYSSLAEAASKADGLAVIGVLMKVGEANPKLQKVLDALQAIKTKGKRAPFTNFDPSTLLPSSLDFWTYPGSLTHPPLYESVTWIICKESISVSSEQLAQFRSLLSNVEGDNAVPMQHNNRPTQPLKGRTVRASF
Description for Carbonic anhydrase 12: Inhibition of human recombinant CA-12 after 15 mins by stopped-flow CO2 hydrase assay
Description for Carbonic anhydrase 9: Inhibition of human recombinant CA-9 after 15 mins by stopped-flow CO2 hydrase assay

With `NS(=O)(=O)c1ccc(OCc2ccc(Br)cc2)cc1`, the Ki at Carbonic anhydrase 1 stood at 246 nM; at Carbonic anhydrase 2 it was 27.8 nM; at Carbonic anhydrase 7 it was 8.9 nM; on Carbonic anhydrase 9, 3.5 nM; at Carbonic anhydrase 12, 6.4 nM.

Consider `NS(=O)(=O)c1ccc(OCCN2CCOCC2)cc1`, for which the Ki on Carbonic anhydrase 1 was 453 nM; on Carbonic anhydrase 2 it was 31.7 nM; on Carbonic anhydrase 7, 86.4 nM; at Carbonic anhydrase 12, 10.7 nM.

`NS(=O)(=O)c1nc2ccc(OCC#Cc3ccccc3)cc2s1`: the Ki on Carbonic anhydrase 1 stood at 2420 nM; at Carbonic anhydrase 2 it was 52.1 nM; on Carbonic anhydrase 7 it was 73.8 nM; at Carbonic anhydrase 9, 10.3 nM; at Carbonic anhydrase 12, 6.2 nM.

For `NS(=O)(=O)c1ccc2c(c1)CCN2C(=O)C(F)(F)F`, the Ki is 34.3 nM at Carbonic anhydrase 1; 9.2 nM on Carbonic anhydrase 2; 8.3 nM at Carbonic anhydrase 7; 6.9 nM at Carbonic anhydrase 9; 4.1 nM on Carbonic anhydrase 12.

Turning to `CC(=O)Nc1nnc(S(N)(=O)=O)s1` [ACETAZOLAMIDE], in the experiment with Mus musculus [1] (CD-1, po, read-out: MED), the minimal effective dose worked out at 30 mg/kg.

On to `NS(=O)(=O)c1ccc(OCC#Cc2ccccc2)cc1`, for which the inhibition constant (Ki) on Carbonic anhydrase 1 was 3450 nM; at Carbonic anhydrase 2, 41.6 nM; at Carbonic anhydrase 7, 97.2 nM; on Carbonic anhydrase 9, 21.6 nM; at Carbonic anhydrase 12 it was 33.8 nM.

As for `CCOc1ccc(S(N)(=O)=O)cc1`, the Ki on Carbonic anhydrase 1 was found to be 246 nM; at Carbonic anhydrase 2, 23.1 nM; on Carbonic anhydrase 7 it was 9.5 nM; at Carbonic anhydrase 9, 8.1 nM; on Carbonic anhydrase 12, 13.6 nM. Moreover, the inhibition entry in the experiment with Mus musculus [1] is “Dose-dependent effect”. Also, the Ratio in the experiment with Mus musculus [2] is recorded as 3.

Consider `NS(=O)(=O)c1ccc(OCCc2ccccc2)cc1`, for which the Ki on Carbonic anhydrase 1 was found to be 207 nM; on Carbonic anhydrase 2, 7.8 nM; at Carbonic anhydrase 7, 9.4 nM; on Carbonic anhydrase 9 it was 2.4 nM; at Carbonic anhydrase 12 it was 1.2 nM.

As to `NS(=O)(=O)c1nc2ccc(OCc3ccccc3)cc2s1`, the Ki at Carbonic anhydrase 1 came out at 48.1 nM; on Carbonic anhydrase 2, 7.6 nM; at Carbonic anhydrase 7, 7.7 nM; at Carbonic anhydrase 12 it was 2.5 nM.

With `C#CCOc1ccc(S(N)(=O)=O)cc1`, the Ki was determined as 2340 nM on Carbonic anhydrase 1, 28.7 nM at Carbonic anhydrase 2, 9.6 nM at Carbonic anhydrase 7 and 2.3 nM on Carbonic anhydrase 12.

Take `C=CCOc1ccc(S(N)(=O)=O)cc1`: the Ki at Carbonic anhydrase 7 amounted to 9.9 nM; on Carbonic anhydrase 9, 13.5 nM; at Carbonic anhydrase 12 it was 6.8 nM.

Regarding `CCCOc1ccc(S(N)(=O)=O)cc1`, the Ki on Carbonic anhydrase 1 stood at 780 nM; at Carbonic anhydrase 2, 12.8 nM; at Carbonic anhydrase 7, 10.1 nM; on Carbonic anhydrase 9, 13.2 nM; on Carbonic anhydrase 12, 7.9 nM.

Turning to `C#CCN(CC#C)c1ccc(S(N)(=O)=O)cc1`, the Ki at Carbonic anhydrase 1 is 6400 nM; at Carbonic anhydrase 2 it was 1780 nM; at Carbonic anhydrase 7 it was 8.6 nM; on Carbonic anhydrase 9 it was 9 nM; at Carbonic anhydrase 12 it was 4.9 nM.

On to `NS(=O)(=O)c1ccc(OCc2c(F)c(F)c(F)c(F)c2F)cc1`, for which the Ki turned out to be 231 nM on Carbonic anhydrase 1; 26 nM at Carbonic anhydrase 2; 8.9 nM at Carbonic anhydrase 7; 0.86 nM at Carbonic anhydrase 9; 0.75 nM at Carbonic anhydrase 12.

Take `NS(=O)(=O)c1ccc(OCc2ccccc2)cc1`: the Ki on Carbonic anhydrase 1 stood at 762 nM; at Carbonic anhydrase 2, 20.3 nM; on Carbonic anhydrase 7, 8.3 nM; at Carbonic anhydrase 9 it was 17.9 nM; at Carbonic anhydrase 12, 10.5 nM.

For `NS(=O)(=O)c1ccc(OCc2ccc([N+](=O)[O-])cc2)cc1`, the Ki on Carbonic anhydrase 1 stood at 143 nM; at Carbonic anhydrase 2, 1.4 nM; at Carbonic anhydrase 7 it was 0.9 nM; on Carbonic anhydrase 9, 1.3 nM; at Carbonic anhydrase 12, 0.72 nM.

Consider `NS(=O)(=O)c1ccc(OCc2ccc(F)cc2)cc1`, for which the Ki at Carbonic anhydrase 1 came out at 315 nM; at Carbonic anhydrase 2 it was 23.8 nM; on Carbonic anhydrase 7, 9.7 nM; on Carbonic anhydrase 12, 8 nM.

Regarding `NS(=O)(=O)c1ccc(OCC(c2ccccc2)c2ccccc2)cc1`, the Ki on Carbonic anhydrase 1 is 5680 nM; at Carbonic anhydrase 2 it was 22.1 nM; on Carbonic anhydrase 7 it was 70.7 nM; at Carbonic anhydrase 9 it was 34.1 nM; on Carbonic anhydrase 12, 50.4 nM.

Take `CCCCOc1ccc(S(N)(=O)=O)cc1`: the Ki at Carbonic anhydrase 1 stood at 797 nM; on Carbonic anhydrase 2, 7.3 nM; at Carbonic anhydrase 7 it was 9.8 nM; on Carbonic anhydrase 9, 10.1 nM; on Carbonic anhydrase 12, 8.5 nM.
